Laboratory results taken from patent US20230145305A1, “COMPOUNDS USEFUL AS KINASE INHIBITORS” (Fochon Biosciences, Ltd., priority 2020, published 2023).

These compounds were tested on OCI-LY10 cells (assay: Cell proliferation assay (MTS) in OCI-LY10 cells). Conditions: Homo sapiens, OCI-Ly10, 72 h, read-out: OCI-LY10 IC50 (nM).
Assay type: cell-based
Source text: MTS testing kit was purchased from Promega (Madison, Wis., USA). The RPMI-1640, Fetal bovine serum and Penicillin-Streptomycin were purchased from BI (Biological Industries, Beit Haemek, Israel). Dimethyl sulfoxide (DMSO) was purchased from Sigma (St. Louis., Mo., USA). […] To investigate whether a compound is able to inhibit the activity of BTK in cells, a mechanism-based assay using OCI-LY10 cells was developed. In this assay, inhibition of BTK was detected by the inhibition of OCI-LY10 cells proliferation. Cells were plated into 96-well plates at a density of 10000 cells/well. Plates were incubated at 37° C., with 5% CO2 for 4 h. […] Plates were incubated at 37° C., with 5% CO2 for 72 h. 20 μl MTS was added into each well and the plates were incubated at 37° C., with 5% CO2 for exactly 2 h. The absorbance was measured by a microplate reader at 490 nm. IC50 was calculated using GraphPad Prism 5.0 software. Select compounds prepared as described above were assayed according to the biological procedures described herein.

Row | SMILES | IC50
1 | COc1ccc(F)cc1C(=O)NCc1ccc(-c2nn(C3CCCC3)c3c(=O)[nH]nc(N)c23)cc1F [Example 62, N-(4-(4-amino-1-cyclopentyl-7-oxo-6,7-dihydro-1H-pyrazolo[3,4-d]pyridazin-3-yl)-2-fluorobenzyl)-5-fluoro-2-methoxybenzamide] | 1 nM

Same assay, conditions: Homo sapiens; inhibition of OCI-LY10 cells proliferation, 72 h incubation, MTS, absorbance at 490 nm; read-out: OCI-LY10 IC50

Row | SMILES | IC50
2 | COc1ccc(F)cc1C(=O)NCc1ccc(-c2nn(C(C)C)c3c(=O)[nH]nc(N)c23)cc1 [Example 68, N-(4-(4-amino-1-isopropyl-7-oxo-6,7-dihydro-1H-pyrazolo[3,4-d]pyridazin-3-yl)benzyl)-5-fluoro-2-methoxybenzamide] | 2 nM
3 | COc1ccc(F)cc1C(=O)NCc1ccc(-c2nn(C(C)C(C)C)c3c(=O)[nH]nc(N)c23)cc1 (stereo not drawn) [Example 69, N-(4-(4-amino-1-(3-methylbutan-2-yl)-7-oxo-6,7-dihydro-1H-pyrazolo[3,4-d]pyridazin-3-yl)benzyl)-5-fluoro-2-methoxybenzamide] | 5 nM
4 | COc1ncc(F)cc1C(=O)NCc1ccc(-c2cn(C3CCCC3)c3c(=O)[nH]nc(N)c23)cc1 [Example 71, N-(4-(4-amino-1-cyclopentyl-7-oxo-6,7-dihydro-1H-pyrrolo[2,3-d]pyridazin-3-yl)benzyl)-5-fluoro-2-methoxynicotinamide] | 23 nM
5 | COc1ccc(F)cc1C(=O)NCc1ccc(-c2nn(C(C)CF)c3c(=O)[nH]nc(N)c23)cc1 (stereo not drawn) [Example 75, N-(4-(4-amino-1-(1-fluoropropan-2-yl)-7-oxo-6,7-dihydro-1H-pyrazolo[3,4-d]pyridazin-3-yl)benzyl)-5-fluoro-2-methoxybenzamide] | 12 nM
6 | COc1ccc(F)cc1C(=O)NCc1ccc(-c2nn([C@@H](C)C3CC3)c3c(=O)[nH]nc(N)c23)cc1 [Example 77b, (S)-N-(4-(4-amino-1-(1-cyclopropylethyl)-7-oxo-6,7-dihydro-1H-pyrazolo[3,4-d]pyridazin-3-yl)benzyl)-5-fluoro-2-methoxybenzamide] | 1 nM
7 | COc1ccc(F)cc1C(=O)NCc1ccc(-c2nn(C(CO)C(F)(F)F)c3c(=O)[nH]nc(N)c23)cc1 (stereo not drawn) [Example 78, N-(4-(4-amino-7-oxo-1-(1,1,1-trifluoro-3-hydroxypropan-2-yl)-6,7-dihydro-1H-pyrazolo[3,4-d]pyridazin-3-yl)benzyl)-5-fluoro-2-methoxybenzamide] | 26 nM
8 | COc1cc(F)c(F)cc1C(=O)NCc1ccc(-c2cn(C3CCCC3)c3c(=O)[nH]nc(N)c23)cc1 [Example 79, N-(4-(4-amino-1-cyclopentyl-7-oxo-6,7-dihydro-1H-pyrrolo[2,3-d]pyridazin-3-yl)benzyl)-4,5-difluoro-2-methoxybenzamide] | 50 nM
9 | COc1ccc(F)cc1C(=O)NCc1ccc(-c2nn([C@H]3CCC[C@@H]3F)c3c(=O)[nH]nc(N)c23)cc1 [Example 80, N-(4-(4-amino-1-((1S,2S)-2-fluorocyclopentyl)-7-oxo-6,7-dihydro-1H-pyrazolo[3,4-d]pyridazin-3-yl)benzyl)-5-fluoro-2-methoxybenzamide] | 1 nM
10 | COc1ccc(F)cc1C(=O)NCc1ccc(-c2nn(C3(CF)CC3)c3c(=O)[nH]nc(N)c23)cc1 [Example 82, N-(4-(4-amino-1-(1-(fluoromethyl)cyclopropyl)-7-oxo-6,7-dihydro-1H-pyrazolo[3,4-d]pyridazin-3-yl)benzyl)-5-fluoro-2-methoxybenzamide] | 3 nM
11 | COc1ccc(F)cc1C(=O)NCc1ccc(-c2nn(C(C)(C)CF)c3c(=O)[nH]nc(N)c23)cc1 [Example 83, N-(4-(4-amino-1-(1-fluoro-2-methylpropan-2-yl)-7-oxo-6,7-dihydro-1H-pyrazolo[3,4-d]pyridazin-3-yl)benzyl)-5-fluoro-2-methoxybenzamide] | 46 nM
12 | COc1ccc(F)cc1C(=O)NCc1ccc(-c2nn(C3(C(F)F)CC3)c3c(=O)[nH]nc(N)c23)cc1 [Example 84, N-(4-(4-amino-1-(1-(difluoromethyl)cyclopropyl)-7-oxo-6,7-dihydro-1H-pyrazolo[3,4-d]pyridazin-3-yl)benzyl)-5-fluoro-2-methoxybenzamide] | 4 nM
13 | COc1ccc(F)cc1C(=O)NCc1ccc(-c2nn(C(C)(C)C(F)F)c3c(=O)[nH]nc(N)c23)cc1 [Example 85, N-(4-(4-amino-1-(1,1-difluoro-2-methylpropan-2-yl)-7-oxo-6,7-dihydro-1H-pyrazolo[3,4-d]pyridazin-3-yl)benzyl)-5-fluoro-2-methoxybenzamide] | 18 nM
14 | COc1ccc(F)cc1C(=O)NCc1ccc(-n2nc(C3CCCO3)c3c(=O)[nH]nc(N)c32)cc1 (stereo not drawn) [Example 86, N-(4-(7-amino-4-oxo-3-(tetrahydrofuran-2-yl)-4,5-dihydro-1H-pyrazolo[3,4-d]pyridazin-1-yl)benzyl)-5-fluoro-2-methoxybenzamide] | 90 nM
15 | COc1ccc(F)cc1C(=O)NCc1ccc(-c2nn(C3(C(F)(F)F)CC3)c3c(=O)[nH]nc(N)c23)cc1 [Example 87, N-(4-(4-amino-7-oxo-1-(1-(trifluoromethyl)cyclopropyl)-6,7-dihydro-1H-pyrazolo [3,4-d]pyridazin-3-yl)benzyl)-5-fluoro-2-methoxybenzamide] | 4 nM
16 | COc1ccc(F)cc1C(=O)NCc1ccc(-c2nn([C@@H](CF)C3CC3)c3c(=O)[nH]nc(N)c23)cc1 [Example 88, (R)-N-(4-(4-amino-1-(1-cyclopropyl-2-fluoroethyl)-7-oxo-6,7-dihydro-1H-pyrazolo[3,4-d]pyridazin-3-yl)benzyl)-5-fluoro-2-methoxybenzamide] | 1 nM

Continued, values first:

Row | IC50 | SMILES
17 | 1 nM | COc1ccc(F)cc1C(=O)NCc1ccc(-c2nn(C3CCCC3)c3c(=O)[nH]nc(N)c23)c(F)c1 [Example 63, N-(4-(4-amino-1-cyclopentyl-7-oxo-6,7-dihydro-1H-pyrazolo[3,4-d]pyridazin-3-yl)-3-fluorobenzyl)-5-fluoro-2-methoxybenzamide]
18 | 1 nM | COc1ccc(F)cc1C(=O)NCc1ccc(-c2nn([C@H]3CCCC3(F)F)c3c(=O)[nH]nc(N)c23)cc1 [Example 64, (S)-N-(4-(4-amino-1-(2,2-difluorocyclopentyl)-7-oxo-6,7-dihydro-1H-pyrazolo[3,4-d]pyridazin-3-yl)benzyl)-5-fluoro-2-methoxybenzamide]
19 | 1 nM | COc1ccc(F)cc1C(=O)NCc1ccc(-c2nn(C3CCC3)c3c(=O)[nH]nc(N)c23)cc1 [Example 65, N-(4-(4-amino-1-cyclobutyl-7-oxo-6,7-dihydro-1H-pyrazolo[3,4-d]pyridazin-3-yl)benzyl)-5-fluoro-2-methoxybenzamide]
20 | 1 nM | COc1ccc(F)cc1C(=O)NCc1ccc(-c2nn(C(C)(C)C)c3c(=O)[nH]nc(N)c23)cc1 [Example 66, N-(4-(4-amino-1-(tert-butyl)-7-oxo-6,7-dihydro-1H-pyrazolo[3,4-d]pyridazin-3-yl)benzyl)-5-fluoro-2-methoxybenzamide]
21 | 1 nM | CCC(C)n1nc(-c2ccc(CNC(=O)c3cc(F)ccc3OC)cc2)c2c(N)n[nH]c(=O)c21 (stereo not drawn) [Example 67, N-(4-(4-amino-1-(sec-butyl)-7-oxo-6,7-dihydro-1H-pyrazolo[3,4-d]pyridazin-3-yl)benzyl)-5-fluoro-2-methoxybenzamide]
22 | 1 nM | COc1ccc(F)cc1C(=O)NCc1ccc(-c2nn(C(C)C(C)(C)C)c3c(=O)[nH]nc(N)c23)cc1 (stereo not drawn) [Example 70, N-(4-(4-amino-1-(3,3-dimethylbutan-2-yl)-7-oxo-6,7-dihydro-1H-pyrazolo[3,4-d]pyridazin-3-yl)benzyl)-5-fluoro-2-methoxybenzamide]
23 | 1 nM | COc1ccc(F)cc1C(=O)NCc1ccc(-c2nn([C@@H]3CCCC3(F)F)c3c(=O)[nH]nc(N)c23)cc1 [Example 72, (R)-N-(4-(4-amino-1-(2,2-difluorocyclopentyl)-7-oxo-6,7-dihydro-1H-pyrazolo[3,4-d]pyridazin-3-yl)benzyl)-5-fluoro-2-methoxybenzamide]
24 | 1 nM | COc1ccc(F)cc1C(=O)NCc1ccc(-c2nn(C3(C)CCC3)c3c(=O)[nH]nc(N)c23)cc1 [Example 73, N-(4-(4-amino-1-(1-methylcyclobutyl)-7-oxo-6,7-dihydro-1H-pyrazolo[3,4-d]pyridazin-3-yl)benzyl)-5-fluoro-2-methoxybenzamide]
25 | 1 nM | COc1ccc(F)cc1C(=O)NCc1ccc(-c2nn(C3(C)CC3)c3c(=O)[nH]nc(N)c23)cc1 [Example 74, N-(4-(4-amino-1-(1-methylcyclopropyl)-7-oxo-6,7-dihydro-1H-pyrazolo[3,4-d]pyridazin-3-yl)benzyl)-5-fluoro-2-methoxybenzamide]
26 | 1 nM | COc1ccc(F)cc1C(=O)NCc1ccc(-c2nn(C(C)C(F)F)c3c(=O)[nH]nc(N)c23)cc1 (stereo not drawn) [Example 76, N-(4-(4-amino-1-(1,1-difluoropropan-2-yl)-7-oxo-6,7-dihydro-1H-pyrazolo [3,4-d]pyridazin-3-yl)benzyl)-5-fluoro-2-methoxybenzamide]
27 | 1 nM | COc1ccc(F)cc1C(=O)NCc1ccc(-c2nn([C@H](C)C3CC3)c3c(=O)[nH]nc(N)c23)cc1 [Example 77a, (R)-N-(4-(4-amino-1-(1-cyclopropylethyl)-7-oxo-6,7-dihydro-1H-pyrazolo[3,4-d]pyridazin-3-yl)benzyl)-5-fluoro-2-methoxybenzamide]
